Laboratory results as given in ChEMBL document CHEMBL1128760, “CCKB selective receptor ligands: novel 1,3,5-trisubstituted benzazepin-2-ones” (Bioorg Med Chem Lett, 1995).
pIC50: −log10 of the molar value.

Target: T1, Cholecystokinin receptor type A (Rattus norvegicus, UniProt P30551)
T1 sequence (P30551 whole entry): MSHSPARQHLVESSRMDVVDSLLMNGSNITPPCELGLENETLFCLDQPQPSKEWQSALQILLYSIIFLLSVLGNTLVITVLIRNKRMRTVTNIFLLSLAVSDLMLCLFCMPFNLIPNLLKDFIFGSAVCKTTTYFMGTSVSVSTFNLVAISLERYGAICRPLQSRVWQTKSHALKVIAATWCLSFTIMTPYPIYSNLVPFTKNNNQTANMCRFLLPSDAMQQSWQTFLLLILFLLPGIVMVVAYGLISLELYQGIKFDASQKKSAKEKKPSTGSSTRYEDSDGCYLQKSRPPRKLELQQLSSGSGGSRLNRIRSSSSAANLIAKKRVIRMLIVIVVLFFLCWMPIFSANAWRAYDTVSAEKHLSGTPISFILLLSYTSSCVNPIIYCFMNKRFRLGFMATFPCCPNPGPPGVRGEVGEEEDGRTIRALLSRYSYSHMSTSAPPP
Assay: Inhibitory activity against Cholecystokinin type A receptor in rat pancreas using [125 I ]- CCK-8 as radioligand.

SMILES	pIC50
Cc1cccc(NC(=O)N[C@@H]2C[C@H](N3CCCCCC3)c3ccccc3N(C)C2=O)c1	6.92
Cc1cccc(NC(=O)N[C@@H]2C[C@@H](N3CCCCCC3)c3ccccc3N(C)C2=O)c1	6.19
